Laboratory results reported in patent US10981932B2, “Macrocyclic indole derivatives” (Bayer Aktiengesellschaft, priority 2016, dated 2021).
Counter-ions that a name gives are not always drawn. Like-named read-outs stand apart in the source and are kept apart here.

Legend:
SUDHL10 [1] = assay: Induction of caspase-3/7 activity (Caspase-Glo 3/7), SUDHL10; assay type: cell-based; conditions: caspase-3/7 induction, SUDHL10 cells, 3 h treatment, median
Summary of the method: (§1)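 Caspase-Glo 3/7 luminescence, 3 h compound exposure, 37 °C, humidified. Minus medium-only blank. EC50 fit: C0=1, plateau = reference max induction.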

SUDHL5 [2] = assay: Anti-proliferative effect (CellTiter-Glo, 72 h), SUDHL5; assay type: cell-based; conditions: SUDHL5 cells, antiproliferation, median, read-out: Antiproli SUDHL5 [M] (median)
Summary of the method: (§2)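 Viable cells quantified with CellTiter-Glo after 72 h at 37 °C; rim wells excluded; day 0 plate as baseline.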

MV-4-11 = assay: Anti-proliferative effect (CellTiter-Glo, 72 h), MV-4-11; assay type: cell-based; conditions: MV-4-11 cells, median, read-out: IC50 antiproliferation assay MV-4-11 [M] (median)
Summary of the method: as §2

SUDHL10 [3] = assay: Anti-proliferative effect (CellTiter-Glo, 72 h), SUDHL10; assay type: cell-based; conditions: SUDHL10 cells, antiproliferation, median, read-out: Antiproli SUDHL10 [M] (median)
Summary of the method: as §2

SUDHL5 [4] = assay: Induction of cytotoxicity (CellTiter-Glo, 5 h), SUDHL5
SUDHL10 [5] = assay: Induction of cytotoxicity (CellTiter-Glo, 5 h), SUDHL10
MCL-1 = MCL-1 (Homo sapiens, UniProt Q07820); assay: Protein-protein interaction assay MCL-1/Noxa BH3 peptide (MCL-1 assay), TR-FRET; assay type: binding; conditions: MBP-MCL-1 / Noxa BH3-derived peptide, median
Summary of the method: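 Displacement of the biotinylated Noxa BH3 peptide from MBP-tagged human MCL-1 (1 nM) is detected by time-resolved FRET. Compounds are tested in duplicate across eleven concentrations up to 20 μM, incubated 1 h at 22 °C and overnight at 4 °C, and IC50 is fitted with a four-parameter equation.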

SUDHL5 [6] = assay: Induction of caspase-3/7 activity (Caspase-Glo 3/7), SUDHL5; assay type: cell-based; conditions: caspase-3/7 induction, SUDHL5 cells, 3 h treatment, median
Summary of the method: as §1

A2780 = assay: Anti-proliferative effect (CellTiter-Glo, 72 h), A2780; assay type: cell-based; conditions: A2780 cells, median, read-out: IC50 antiproliferation assay A2780 [M] (median)
Summary of the method: as §2

[7] = Homo sapiens, SU-DHL10, 72 h, 72 h incubation
[8] = read-out: Cytotox SUDHL5 [M] (median), SUDHL5 cells, cytotoxicity induction, CellTiter-Glo, 5 h incubation, median
[9] = Homo sapiens, SU-DHL10, 5 h, read-out: Cytotox SUDHL10 [M] (median), SUDHL10 cells, cytotoxicity induction, CellTiter-Glo, 5 h incubation, median
[10] = read-out: Cytotox SUDHL5 [M] (median), SUDHL5 cells, cytotoxicity induction, CellTiter-Glo, 5 h, median
[11] = Homo sapiens, SU-DHL-5, 72 h, 72 h
[12] = Homo sapiens, SU-DHL-5, 5 h, read-out: Cytotox SUDHL5 [M] (median), SUDHL5 cells, cytotoxicity induction, CellTiter-Glo, 5 h, median
[13] = Homo sapiens, SU-DHL10, 5 h, read-out: Cytotox SUDHL10 [M] (median), SUDHL10 cells, cytotoxicity induction, CellTiter-Glo, 5 h, median
[14] = read-out: Cytotox SUDHL10 [M] (median), SUDHL10 cells, cytotoxicity induction, CellTiter-Glo, 5 h incubation, median

Chain of MCL-1 (Q07820 whole entry): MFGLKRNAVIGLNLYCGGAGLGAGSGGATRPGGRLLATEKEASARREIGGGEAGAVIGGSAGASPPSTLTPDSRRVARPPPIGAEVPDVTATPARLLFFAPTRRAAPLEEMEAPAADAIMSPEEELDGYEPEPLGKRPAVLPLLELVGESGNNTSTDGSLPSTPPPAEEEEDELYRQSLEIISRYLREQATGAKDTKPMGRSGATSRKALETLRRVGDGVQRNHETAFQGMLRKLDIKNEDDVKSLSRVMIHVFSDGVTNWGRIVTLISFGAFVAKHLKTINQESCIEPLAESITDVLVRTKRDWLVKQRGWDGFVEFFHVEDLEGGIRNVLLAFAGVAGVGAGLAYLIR

Row | SMILES | EC50 (SUDHL10 [1]) [µM] | IC50 (SUDHL5 [2]; 72 h incubation) [M] | IC50 (MV-4-11; Homo sapiens, MV4-11, 72 h) [M] | IC50 (SUDHL5 [4]; [8]) [M] | IC50 (MCL-1) [µM] | EC50 (SUDHL5 [6]) [µM] | IC50 (A2780; Homo sapiens, A2780, 72 h) [M] | IC50 (MV-4-11) [M] | IC50 (A2780) [M] | EC50 (SUDHL10 [1]; Homo sapiens, SU-DHL10, 3 h) [µM] | EC50 (SUDHL5 [6]; Homo sapiens, SU-DHL-5, 3 h) [µM] | IC50 (SUDHL5 [2]; [11]) [M] | IC50 (SUDHL5 [4]; [12]) [M] | IC50 (SUDHL10 [5]; [13]) [M] | further results
1 | Cn1nc(CN2CC(F)(F)C2)c2c1COCCCCn1c(C(=O)O)c(CCCOc3cccc4ccccc34)c3cccc-2c31 (single isomer, unassigned; enantiomer 1) [Example 181, 3-[(3,3-difluoroazetidin-1-yl)methyl]-1-methyl-7-[3-(naphthalen-1-yloxy)propyl]-1,10,11,12,13,15-hexahydropyrazolo[4′,3′:9,10][1,6]oxazacycloundecino[8,7,6-hi]indole-8-carboxylic acid-N-ethylethanamine Salt (Enantiomer 1)] | 16.1 | 6.23e-06 | 1.8e-05 | 6.68e-06 | 0.00777 | 5.11 | 2.46e-05 | – | – | – | – | – | – | – | IC50 (SUDHL10 [3]; [7]): 8.23e-06 M; IC50 (SUDHL10 [5]; [9]): 1.67e-05 M
2 | Cc1nn(C)c2c1-c1cccc3c(CCCOc4cccc5ccccc45)c(C(=O)O)n(c13)CCCCOC2 (single isomer, unassigned; enantiomer 2) [Example 318, (−)-1,3-dimethyl-7-[3-(naphthalen-1-yloxy)propyl]-1,10,11,12,13,15-hexahydropyrazolo[4′,3′:9,10][1,6]oxazacycloundecino[8,7,6-hi]indole-8-carboxylic Acid (Enantiomer 2)] | > 33 | – | – | – | 0.0131 | 26.4 | – | 3.28e-05 | > 3.3e-05 | – | – | – | – | – | IC50 (SUDHL5 [2]; 72 h): 1.84e-05 M; IC50 (SUDHL10 [3]; 72 h): 2.72e-05 M; IC50 (SUDHL5 [4]; [10]): 1.62e-05 M; IC50 (SUDHL10 [5]; read-out: Cytotox SUDHL10 [M] (median), SUDHL10 cells, cytotoxicity induction, CellTiter-Glo, 5 h, median): > 3.3e-05 M
3 | Cc1c2c(nn1CCN1CCOCC1)COCCCCn1c(C(=O)O)c(CCCOc3cccc4cc(F)ccc34)c3cccc-2c31 (racemic) [Example 284, (rac)-7-{3-[(6-fluoronaphthalen-1-yl)oxy]propy}-3-methyl-2-[2-(morpholin-4-yl)ethyl]-2,10,11,12,13,15-hexahydropyrazolo[4′,3′:9,10][1,6]oxazacycloundecino[8,7,6-hi]indole-8-carboxylic Acid] | – | – | 8.62e-06 | – | 0.00221 | – | 1.52e-05 | – | – | 3.73 | 1.84 | – | – | – | IC50 (SUDHL5 [2]; Homo sapiens, SU-DHL-5, 72 h, 72 h incubation): 2.82e-06 M; IC50 (SUDHL10 [3]; [7]): 7.01e-06 M; IC50 (SUDHL5 [4]; Homo sapiens, SU-DHL-5, 5 h, read-out: Cytotox SUDHL5 [M] (median), SUDHL5 cells, cytotoxicity induction, CellTiter-Glo, 5 h incubation, median): 2.46e-06 M; IC50 (SUDHL10 [5]; [9]): 4.25e-06 M
4 | CCc1nn(C)c2c1-c1cccc3c(CCCOc4cccc5cc(F)ccc45)c(C(=O)O)n(c13)CCCCOC2 (racemic) [Example 287, (rac)-3-ethyl-7-{3-[(6-fluoronaphthalen-1-yl)oxy]propyl}-1-methyl-1,10,11,12,13,15-hexahydropyrazolo[4′,3′:9,10][1,6]oxazacycloundecino[8,7,6-hi]indole-8-carboxylic Acid] | – | – | 1.49e-05 | – | 0.00206 | – | 3.05e-05 | – | – | 13 | 5.14 | 7.2e-06 | 5.19e-06 | 1.58e-05 | IC50 (SUDHL10 [3]; Homo sapiens, SU-DHL10, 72 h, 72 h): 8.1e-06 M
5 | CCc1nn(C)c2c1-c1cccc3c(CCCOc4cccc5c(F)cccc45)c(C(=O)O)n(c13)CCCCOC2 (racemic) [Example 298, (rac)-3-ethyl-7-{3-[(5-fluoronaphthalen-1-yl)oxy]propyl}-1-methyl-1,10,11,12,13,15-hexahydropyrazolo[4′,3′:9,10][1,6]oxazacycloundecino[8,7,6-hi]indole-8-carboxylic Acid] | – | – | 9.4e-06 | – | 0.0017 | – | 2.66e-05 | – | – | 20.5 | 8.78 | 1.09e-05 | 9.1e-06 | 2.27e-05 | –
6 | O=C(O)c1c(CCCOc2cccc3ccccc23)c2cccc3c2n1CCCCOCc1nn2c(c1-3)CCCC2 (single isomer, unassigned) [Example 255, 1-[3-(naphthalen-1-yloxy)propyl]-4,5,6,7,12,13,14,15-octahydro-9H-pyrido[1″,2″:1′,5′]pyrazolo[4′,3′:9,10][1,6]oxazacycloundecino[8,7,6-hi]indole-2-carboxylic Acid] | > 33 | 1.39e-05 | – | > 3.3e-05 | 0.067 | > 33 | – | 1.31e-05 | 2.48e-05 | – | – | – | – | – | IC50 (SUDHL10 [5]; [14]): 3.28e-05 M
7 | Cc1c2c(nn1C)COCCCCn1c(C(=O)O)c(CCCOc3cccc4cc(Cl)ccc34)c3cccc-2c31 (racemic) [Example 295, (rac)-7-{3-[(6-chloronaphthalen-1-yl)oxy]propyl}-2,3-dimethyl-2,10,11,12,13,15-hexahydropyrazolo[4′,3′:9,10][1,6]oxazacycloundecino[8,7,6-hi]indole-8-carboxylic Acid] | – | – | 1.58e-05 | – | 0.00528 | – | 1.72e-05 | – | – | 19 | 17 | 9.86e-06 | 1.61e-05 | 1.8e-05 | –
8 | Cn1nc(C(F)(F)F)c2c1COCCCCn1c(C(=O)O)c(CCCOc3cccc4ccccc34)c3cccc-2c31 (single isomer, unassigned) [Example 217, 1-methyl-7-[3-(naphthalen-1-yloxy)propyl]-3-(trifluoromethyl)-1,10,11,12,13,15-hexahydropyrazolo[4′,3′:9,10][1,6]oxazacycloundecino[8,7,6-hi]indole-8-carboxylic Acid] | 13.4 | 5.58e-06 | – | 3.92e-06 | 0.00251 | 3.5 | > 3.3e-05 | 1.52e-05 | 2.92e-05 | – | – | – | – | – | IC50 (SUDHL10 [5]; [14]): 1.58e-05 M
9 | Cc1ccc2c(OCCCc3c(C(=O)O)n4c5c(cccc35)-c3c(nn(C)c3C)COCCCC4)cccc2c1 (racemic) [Example 307, (rac)-11,12-dimethyl-1-(3-((6-methylnaphthalen-1-yl)oxy)propyl)-4,5,6,7,9,11-hexahydropyrazolo[4′,3′:9,10][1,6]oxaazacycloundecino[8,7,6-hi]indole-2-carboxylic Acid] | – | – | 1.84e-05 | – | 0.0129 | – | 1.76e-05 | – | – | > 33 | > 33 | 1.19e-05 | > 3.3e-05 | > 3.3e-05 | –
10 | Cn1nc(COCc2ccc(C#N)cc2)c2c1COCCCCn1c(C(=O)O)c(CCCOc3cccc4ccccc34)c3cccc-2c31 (single isomer, unassigned; enantiomer 1) [Example 347, 3-({[(4-cyanobenzyl)oxy]methyl}-1-methyl-7-[3-(naphthalen-1-yloxy)propyl]-1,10,11,12,13,15-hexahydropyrazolo[4′,3′:9,101][1,6]oxazacycloundecino[8,7,6-hi]indole-8-carboxylic acid-N-ethylethanamine Salt (Enantiomer 1)] | – | – | – | – | 0.343 | > 33 | 9.45e-06 | 1.2e-05 | – | > 33 | – | 4.2e-06 | – | > 3.3e-05 | IC50 (SUDHL5 [4]; [10]): > 3.3e-05 M
